In patent publication US20090163517A1, “BENZOOXAZOLE, OXAZOLOPYRIDINE, BENZOTHIAZOLE AND THIAZOLOPYRIDINE DERIVATIVES” (priority 2005, published 2009):
pKi: −log10 of the molar value.

What follows are molecules tested against T1, human subtype 5 somatostatin receptor (Homo sapiens, UniProt P35346) (assay: SSTR5 radioligand binding on membranes of CHO cells expressing the human receptor (125I-labeled 11-Tyr somatostatin-14 tracer)). Details: Ki calculated from IC50 by the Cheng-Prussoff equation, 0.05 nM 125I tracer, 1 hour at room temperature, read-out: SSTR 5 Ki.
T1 construct: host or cells: CHO cell line, stably transfected; membranes prepared by sonication and centrifugation
T1 sequence (P35346 whole entry): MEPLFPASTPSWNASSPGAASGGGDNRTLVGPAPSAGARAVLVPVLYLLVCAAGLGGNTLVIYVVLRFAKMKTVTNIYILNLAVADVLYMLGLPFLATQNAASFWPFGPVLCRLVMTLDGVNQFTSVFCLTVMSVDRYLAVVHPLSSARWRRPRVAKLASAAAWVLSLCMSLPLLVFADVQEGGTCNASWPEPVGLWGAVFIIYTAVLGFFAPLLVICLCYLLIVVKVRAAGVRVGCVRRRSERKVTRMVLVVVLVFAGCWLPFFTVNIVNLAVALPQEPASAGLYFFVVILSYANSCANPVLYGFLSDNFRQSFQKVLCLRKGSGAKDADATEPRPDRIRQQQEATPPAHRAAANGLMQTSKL
Method: A CHO cell line stably transfected with a plasmid encoding the human subtype 5 somatostatin receptor (GenBank accession number D16827) was obtained from Euroscreen. Cells were cultured and used for binding and functional assays.
Membranes of these cells were prepared by sonication in the presence of protease inhibitors and subsequent fractionating centrifugation. The protein concentration in the membrane preparation was determined using a commercial kit (BCA kit, Pierce, USA). Membranes were stored at −80° C. until use. After thawing, membranes were diluted in assay buffer (50 mM TRIS-HCl at pH 7.4, 5 mM MgCl2 and 0.20% BSA (bovine serum albumine)) and subjected to dounce homogenization.
For binding studies, 0.1 mL membrane suspension, corresponding to app. 6×10^−15 mol receptor, was incubated for 1 hour at room temperature with 0.05 nM ^125I-labeled tracer (11-Tyr somatostatin-14, Perkin-Elmer) and either test compounds in varying concentrations or, for the determination of non-specific binding, 0.001 mM non-labeled somatostatin-14 (Sigma-Aldrich, Buchs, Switzerland). The incubation was stopped by filtration through GF/B glassfiber filters (Unifilter, Perkin-Elmer) and washing with ice-cold wash buffer (50 mM Tris-HCl at pH 7.4). The bound radioactivity was measured after application of a scintillation cocktail (Microscint 40, Perkin-Elmer) and expressed as disintegrations per minute (dpm).
The receptor concentration was determined in a prior saturation experiment where a fixed, arbitrary amount of membranes was incubated with a concentration range of radio-labeled tracer. This allows estimating the total number of specific binding sites per amount of protein (i.e., Bmax), typically between 1 and 5 pmol/mg.
The concentration of the test compound required to result in half maximal inhibition of binding of the radio-labeled tracer (IC50) was estimated from a concentration-versus-dpm graph. The binding affinity (Ki) was calculated from the IC50 by applying the Cheng-Prussoff equation for single binding sites.

pKi | SMILES
8.22 | CCOc1cc(CN2CCC(Nc3nc4c(N)cccc4o3)CC2)cc(OCC)c1-n1cccc1 [Example 23, N^2-[1-(3,5-Diethoxy-4-pyrrol-1-yl-benzyl)-piperidin-4-yl]-benzooxazole-2,4-diamine]
7.36 | CCOc1cc(CN2CCC(Nc3nc4ccc(C(=O)O)cc4o3)CC2)cc(OCC)c1N [Example 71, 2-[1-(4-Amino-3,5-diethoxy-benzyl)-piperidin-4-ylamino]-benzooxazole-6-carboxylic Acid]
6.65 | CCOc1cc(CN2CCC(Nc3nc4c([N+](=O)[O-])cccc4o3)CC2)ccc1F [Example 73, [1-(3-Ethoxy-4-fluoro-benzyl)-piperidin-4-yl]-(4-nitro-benzooxazol-2-yl)-amine]
